From patent publication US20160297833A1, “THIENOPYRIMIDINES AS MKNK1 AND MKNK2 INHIBITORS” (BAYER PHARMA AKTIENGESELLSCHAFT, priority 2013, published 2016) come the findings set out here.

T1 sequence (Q9BUB5 1-424 isoform Q9BUB5-2 T344D): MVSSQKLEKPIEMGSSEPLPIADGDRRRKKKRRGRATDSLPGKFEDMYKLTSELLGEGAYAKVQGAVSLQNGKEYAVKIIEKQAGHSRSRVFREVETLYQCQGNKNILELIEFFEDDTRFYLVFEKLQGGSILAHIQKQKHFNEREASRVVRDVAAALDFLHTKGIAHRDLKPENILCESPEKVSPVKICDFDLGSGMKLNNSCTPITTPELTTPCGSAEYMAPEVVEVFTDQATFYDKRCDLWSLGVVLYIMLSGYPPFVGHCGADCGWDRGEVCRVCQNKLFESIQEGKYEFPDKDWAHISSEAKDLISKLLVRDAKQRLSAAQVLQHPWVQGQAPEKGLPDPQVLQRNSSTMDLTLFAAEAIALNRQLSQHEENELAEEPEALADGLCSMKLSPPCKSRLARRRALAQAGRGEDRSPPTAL

The assay has as its target T1, human full-length MKNK1 (Homo sapiens, UniProt Q9BUB5, T385D).
T1 construct: GST (N); purchased Carna Biosciences 02-145; host or cells: insect cells (baculovirus expression system)
As to the kind of experiment: MKNK1 kinase high ATP assay (TR-FRET). The following applies: Table 1; MKNK1 kinase high ATP assay, 2 mM ATP; read-out: MKNK1 IC50. It is filed as biochemical. In short, it runs like this: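 Full-length human MKNK1 (T385D) preincubated 15 min at 22 °C with compound in HEPES pH 7.5/MgCl2/DTT buffer; reaction with 2 mM ATP (final) and 0.06 μM biotinylated peptide (final), 30 min at 22 °C.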
With `COc1cc2[nH]ncc2cc1Nc1ncnc2sc3c(c12)CC[C@H](C(=O)N(CCCN(C)C)CCCN(C)C)C3` [Example 59, (7S)—N,N-bis[3-(Dimethylamino)propyl]-4-[(6-methoxy-1H-indazol-5-yl)amino]-5,6,7,8-tetrahydro[1]benzothieno[2,3-d]pyrimidine-7-carboxamide], the 50% inhibitory concentration (IC50) was 0.2 nM. With `CC(C)Oc1cc2[nH]ncc2cc1Nc1ncnc2sc3c(c12)CC[C@H](C(=O)N1CCOC[C@@H]1C)C3` [Example 84, [(3S)-3-Methylmorpholin-4-yl][(7S)-4-{[6-(propan-2-yloxy)-1H-indazol-5-yl]amino}-5,6,7,8-tetrahydro[1]benzothieno[2,3-d]pyrimidin-7-yl]methanone] the figure was 0.7 nM; with `C[C@H](CN)Oc1cc2[nH]ncc2cc1Nc1ncnc2sc3c(c12)CC[C@H](C(=O)N1CCOC[C@@H]1C)C3` [Example 140, {(7S)-4-[(6-{[(2R)-1-Aminopropan-2-yl]oxy}-1H-indazol-5-yl)amino]-5,6,7,8-tetrahydro[1]benzothieno[2,3-d]pyrimidin-7-yl}[(3S)-3-methylmorpholin-4-yl]methanone], 0.4 nM. Consider `CCOc1cc2[nH]ncc2cc1Nc1ncnc2sc3c(c12)CC[C@H](C(=O)N1C[C@H]2C[C@@H]1CO2)C3` [Example 71, {(7S)-4-[(6-Ethoxy-1H-indazol-5-yl)amino]-5,6,7,8-tetrahydro[1]benzothieno[2,3-d]pyrimidin-7-yl}[(1R,4R)-2-oxa-5-azabicyclo[2.2.1]hept-5-yl]methanone], for which the IC50 is 0.9 nM. Regarding `COc1cc2[nH]ncc2cc1Nc1ncnc2sc3c(c12)CC[C@H](C(=O)N(C)CCC(C)(C)O)C3` [Example 215, (7S)—N-(3-Hydroxy-3-methylbutyl)-4-[(6-methoxy-1H-indazol-5-yl)amino]-N-methyl-5,6,7,8-tetrahydro[1]benzothieno[2,3-d]pyrimidine-7-carboxamide], the IC50 came to 1 nM. Take `CCCN(C)C(=O)[C@H]1CCc2c(sc3ncnc(Nc4cc5cn[nH]c5cc4OC)c23)C1` [Example 97, (7S)-4-[(6-methoxy-1H-indazol-5-yl)amino]-N-methyl-N-propyl-5,6,7,8-tetrahydro[1]benzothieno[2,3-d]pyrimidine-7-carboxamide]: the half-maximal inhibitory concentration (IC50) was 0.3 nM. The figure for `CC(C)OC(=O)NCCOc1cc2[nH]ncc2cc1Nc1ncnc2sc3c(c12)CC[C@H](C(=O)N(C)C)C3` [Example 260, Propan-2-yl {2-[(5-{[(7S)-7-(dimethylcarbamoyl)-5,6,7,8-tetrahydro[1]benzothieno[2,3-d]pyrimidin-4-yl]amino}-1H-indazol-6-yl)oxy]ethyl}carbamate] is 0.2 nM. On to `C[C@@H]1COCCN1C(=O)[C@H]1CCc2c(sc3ncnc(Nc4cc5cn[nH]c5cc4N4CCC(N(C)C)CC4)c23)C1` [Example 136, [(7S)-4-({6-[4-(Dimethylamino)piperidin-1-yl]-1H-indazol-5-yl}amino)-5,6,7,8-tetrahydro[1]benzothieno[2,3-d]pyrimidin-7-yl][(3R)-3-methylmorpholin-4-yl]methanone], for which the IC50 came to 24 nM. For `CCOc1cc2[nH]ncc2cc1Nc1ncnc2sc3c(c12)CC[C@H](C(=O)N1C[C@@H](C)O[C@@H](C)C1)C3` [Example 167, [(2R,6S)-2,6-dimethylmorpholin-4-yl]{(7S)-4-[(6-ethoxy-1H-indazol-5-yl)amino]-5,6,7,8-tetrahydro[1]benzothieno[2,3-d]pyrimidin-7-yl}methanone], the IC50 is 0.3 nM.

As to `CC(C)Oc1cc2[nH]ncc2cc1Nc1ncnc2sc3c(c12)CC[C@H](C(=O)N1CC[C@H](N(C)C)C1)C3` [Example 168, [(3S)-3-(dimethylamino)pyrrolidin-1-yl][(7S)-4-{[6-(propan-2-yloxy)-1H-indazol-5-yl]amino}-5,6,7,8-tetrahydro[1]benzothieno[2,3-d]pyrimidin-7-yl]methanone], the IC50 worked out at 0.4 nM. The figure for `CC(C)Oc1cc2[nH]ncc2cc1Nc1ncnc2sc3c(c12)CC[C@H](C(=O)N1C[C@H]2C[C@@H]1CO2)C3` [Example 87, (1R,4R)-2-Oxa-5-azabicyclo[2.2.1]hept-5-yl[(7S)-4-{[6-(propan-2-yloxy)-1H-indazol-5-yl]amino}-5,6,7,8-tetrahydro[1]benzothieno[2,3-d]pyrimidin-7-yl]methanone] is 0.3 nM; for `CCOc1cc2[nH]ncc2cc1Nc1ncnc2sc3c(c12)CC[C@H](C(=O)N1CC2(COC2)C1)C3` [Example 72, {(7S)-4-[(6-Ethoxy-1H-indazol-5-yl)amino]-5,6,7,8-tetrahydro[1]benzothieno[2,3-d]pyrimidin-7-yl}(2-oxa-6-azaspiro[3.3]hept-6-yl)methanone] it is 0.7 nM; for `CN(C)C(=O)[C@H]1CCc2c(sc3ncnc(Nc4cc5cn[nH]c5cc4OCCNC(=O)CC4CCCC4)c23)C1` [Example 273, (7S)-4-[(6-{2-[(Cyclopentylacetyl)amino]ethoxy}-1H-indazol-5-yl)amino]-N,N-dimethyl-5,6,7,8-tetrahydro[1]benzothieno[2,3-d]pyrimidine-7-carboxamide] it is 0.4 nM. With `CN(C)C(=O)[C@H]1CCc2c(sc3ncnc(Nc4cc5cn[nH]c5cc4OCCN4CCOC4=O)c23)C1` [Example 194, (7S)—N,N-Dimethyl-4-({6-[2-(2-oxo-1,3-oxazolidin-3-yl)ethoxy]-1H-indazol-5-yl}amino)-5,6,7,8-tetrahydro[1]benzothieno[2,3-d]pyrimidine-7-carboxamide] the figure was 44.3 nM; with `CN(C)C1CCN(C(=O)[C@H]2CCc3c(sc4ncnc(Nc5cc6cn[nH]c6cc5OCCN5CCCC5)c34)C2)CC1` [Example 138, [4-(Dimethylamino)piperidin-1-yl][(7S)-4-({6-[2-(pyrrolidin-1-yl)ethoxy]-1H-indazol-5-yl}amino)-5,6,7,8-tetrahydro[1]benzothieno[2,3-d]pyrimidin-7-yl]methanone], 192 nM; with `CN(C)C(=O)[C@H]1CCc2c(sc3ncnc(Nc4cc5cn[nH]c5cc4N(C)C)c23)C1` [Example 98, (7S)-4-{[6-(Dimethylamino)-1H-indazol-5-yl]amino}-N,N-dimethyl-5,6,7,8-tetrahydro[1]benzothieno[2,3-d]pyrimidine-7-carboxamide], 0.2 nM. Regarding `CCOc1cc2[nH]ncc2cc1Nc1ncnc2sc3c(c12)CC[C@H](C(=O)N1CCC(N(C)C)CC1)C3` [Example 122, [4-(Dimethylamino)piperidin-1-yl]{(7S)-4-[(6-ethoxy-1H-indazol-5-yl)amino]-5,6,7,8-tetrahydro[1]benzothieno[2,3-d]pyrimidin-7-yl}methanone], the half-maximal inhibitory concentration (IC50) is 0.2 nM. The figure for `CC(C)N(C)c1cc2[nH]ncc2cc1Nc1ncnc2sc3c(c12)CC[C@H](C(=O)N(C)C)C3` [Example 99, (7S)—N,N-Dimethyl-4-({6-[methyl(propan-2-yl)amino]-1H-indazol-5-yl}amino)-5,6,7,8-tetrahydro[1]benzothieno[2,3-d]pyrimidine-7-carboxamide] is 0.3 nM; for `COc1cc2[nH]ncc2cc1Nc1ncnc2sc3c(c12)CC[C@H](C(=O)N1CCN(CCN(C)C)CC1)C3` [Example 50, {4-[2-(Dimethylamino)ethyl]piperazin-1-yl}{(7S)-4-[(6-methoxy-1H-indazol-5-yl)amino]-5,6,7,8-tetrahydro[1]benzothieno[2,3-d]pyrimidin-7-yl}methanone] it is 0.1 nM; for `COC[C@H](C)N(C)C(=O)[C@H]1CCc2c(sc3ncnc(Nc4cc5cn[nH]c5cc4OC)c23)C1` [Example 283, (7S)-4-[(6-Methoxy-1H-indazol-5-yl)amino]-N-[(25)-1-methoxypropan-2-yl]-N-methyl-5,6,7,8-tetrahydro[1]benzothieno[2,3-d]pyrimidine-7-carboxamide] it is 0.5 nM. In the case of `CCOc1cc2[nH]ncc2cc1Nc1ncnc2sc3c(c12)CC[C@H](C(=O)N(C)CC(C)(C)O)C3` [Example 74, (7S)-4-[(6-Ethoxy-1H-indazol-5-yl)amino]-N-(2-hydroxy-2-methylpropyl)-N-methyl-5,6,7,8-tetrahydro[1]benzothieno[2,3-d]pyrimidine-7-carboxamide], the IC50 stood at 0.2 nM. The figure for `COc1cc2[nH]ncc2cc1Nc1ncnc2sc3c(c12)CC[C@H](C(=O)N1CCCC(F)C1)C3` (mixture of isomers) [Example 205, [(3RS)-3-fluoropiperidin-1-yl]{(7S)-4-[(6-methoxy-1H-indazol-5-yl)amino]-5,6,7,8-tetrahydro[1]benzothieno[2,3-d]pyrimidin-7-yl}methanone] is 0.5 nM.

On to `CN(C)C(=O)[C@H]1CCc2c(sc3ncnc(Nc4cc5cn[nH]c5cc4N(C)CCNC(=O)OC(C)(C)C)c23)C1` [Example 243, tert-butyl {2-[(5-{[(7S)-7-(Dimethylcarbamoyl)-5,6,7,8-tetrahydro[1]benzothieno[2,3-d]pyrimidin-4-yl]amino}-1H-indazol-6-yl)(methyl)amino]ethyl}carbamate], for which the IC50 stood at 1.6 nM.

In the case of `CN(C)C(=O)[C@H]1CCc2c(sc3ncnc(Nc4cc5cn[nH]c5cc4OCC(C)(C)C)c23)C1` [Example 176, (7S)-4-{[6-(2,2-Dimethylpropoxy)-1H-indazol-5-yl]amino}-N,N-dimethyl-5,6,7,8-tetrahydro[1]benzothieno[2,3-d]pyrimidine-7-carboxamide], the IC50 was 39.8 nM. With `CN(C)C(=O)[C@H]1CCc2c(sc3ncnc(Nc4cc5cn[nH]c5cc4OCCN4CCCCC4)c23)C1` [Example 113, (7S)—N,N-Dimethyl-4-({6-[2-(piperidin-1-yl)ethoxy]-1H-indazol-5-yl}amino)-5,6,7,8-tetrahydro[1]benzothieno[2,3-d]pyrimidine-7-carboxamide], the IC50 was determined as 634 nM.

On to `COc1cc2[nH]ncc2cc1Nc1ncnc2sc3c(c12)CC[C@H](C(=O)N1C[C@H]2C[C@@H]1CN2C)C3` [Example 121, {(7S)-4-[(6-Methoxy-1H-indazol-5-yl)amino]-5,6,7,8-tetrahydro[1]benzothieno[2,3-d]pyrimidin-7-yl}[(1R,4R)-5-methyl-2,5-diazabicyclo[2.2.1]hept-2-yl]methanone], for which the IC50 was determined as 0.3 nM.
